Results as given in US11104619B2, “Mixture for treating fertilizers containing urea” (EuroChem Agro GmbH, priority 2015, dated 2021).
Like-named read-outs stand apart in the source and are kept apart here.

Experiments:
[1] = system: nitrification; assay: Soil incubation trial: recovery of applied urea N as ammonium; conditions: for percentage recovery in the form of ammonium, % of applied urea (13 mg N): 28 days after application, Filder loam pH 6.8, 20° C., 200 kg urea N/ha, label gives UI/NI fraction of recommended rate (0.6 g NBPT, 3.6 g DMPSA per kg urea)
Experimental: % of applied urea (13 mg N)
A determination was carried out 28 days after application of the urea, with the percentage recovery in the form of ammonium being reported.

[2] = system: nitrification; assay: Soil incubation trial: nitrate formed from applied urea N; conditions: for Nitrate, % of the urea applied (13 mg N): Filder loam, 20° C., label gives UI/NI fraction of recommended rate
Experimental: % of the urea applied (13 mg N)

[3] = system: nitrification; assay: Soil incubation trial: cumulative laughing gas (N2O-N) emission; conditions: for N2O—N cumulative / N2O—N cumulative, % of appl.: 77 mg N applied; for N2O—N cumulative, % of appl.: cumulative over 28 days
[4] = system: urease; conditions: for Ammonia emission, % of the urea applied (77 mg N): Filder loam, 20° C., label gives UI/NI fraction of recommended rate
Experimental: Screening trials were conducted to evaluate the effect of DMPSA and NBPT in the inhibition of urease and inhibition of nitrification, and to find suitable quantities for use. Serving for this purpose was a two-factorial trial design including an unfertilized control sample. For the urease inhibitor NBPT and for the nitrification inhibitor DMPSA, in each case 0%, 33%, 66% and 100% of the application rates recommended for the individual compounds when used alone were used (in this example, 0.6 g of NBPT per kg of urea and, respectively, 3.6 g of DMPSA per kg of urea), giving 16 trials (0%-0% to 100%-100%), in addition to the unfertilized control sample.
Urea fertilizer was delivered in an amount of 200 kg nitrogen per ha, corresponding to 0.51 mg of urea nitrogen per g of soil. The soil used was Filder loam with a pH of 6.8. The incubation trials were carried out at 20° C. For the investigation of trace gases, air supply was passed first through a gas sample, then through a 250 ml capacity glass bottle containing 150 g of soil, subsequently through a gas sample for the outgoing air and through an acid trap, in order, for example, to determine amounts of ammonia. For the measurement of nitrogen, about 20 g of soil were incubated; for the measurement of urea, about 5 g of soil.

Cc1cn(C(CC(=O)O)C(=O)O)nc1C (stereo not drawn) [DMPSA, 2-(N-3,4-dimethylpyrazole)succinic acid]
inhibition of nitrification (ammonium results) ([1]; 33% of DMPSA, throughout the trial): sufficient to inhibit nitrification throughout the trial
percentage recovery in the form of ammonium, % of applied urea (13 mg N) ([1]; listed as UI 0 NI 1): 69%
percentage recovery in the form of ammonium, % of applied urea (13 mg N) ([1]; listed as UI 0 NI ⅓): 62%
percentage recovery in the form of ammonium, % of applied urea (13 mg N) ([1]; listed as UI 0 NI ⅔): 63%
inhibition of nitrification (nitrate results) ([2]; 33% of the DMPSA, entire period): sufficient to inhibit nitrification during the entire period
Nitrate, % of the urea applied (13 mg N) ([2]; 5 days after application, listed as UI 0 NI 1): 6%
Nitrate, % of the urea applied (13 mg N) ([2]; 5 days after application, listed as UI 0 NI ⅓): 4%
Nitrate, % of the urea applied (13 mg N) ([2]; 5 days after application, listed as UI 0 NI ⅔): 5%
Nitrate, % of the urea applied (13 mg N) ([2]; 28 days after application, listed as UI 0 NI 1): 14%
Nitrate, % of the urea applied (13 mg N) ([2]; 28 days after application, listed as UI 0 NI ⅓): 20%
Nitrate, % of the urea applied (13 mg N) ([2]; 28 days after application, listed as UI 0 NI ⅔): 17%
N2O—N cumulative ([3]; 0 days after appl., 150 g soil): 0 μg N2O—N Bottle^1
emissions of laughing gas ([3]; 33% of DMPSA): drastically reduces the emissions of laughing gas
N2O—N cumulative ([3]; 0.5 days after appl.): 0 μg N2O—N Bottle^1
N2O—N cumulative ([3]; 1 day after appl., listed as UI-0_NI-1): 3 μg N2O—N Bottle^1
N2O—N cumulative ([3]; 1 day after appl., listed as UI-0_NI-2): 1 μg N2O—N Bottle^1
N2O—N cumulative ([3]; 1 day after appl., listed as UI-0_NI-3): 1 μg N2O—N Bottle^1
N2O—N cumulative ([3]; 2 days after appl., listed as UI-0_NI-1): 3 μg N2O—N Bottle^1
N2O—N cumulative ([3]; 2 days after appl., listed as UI-0_NI-2): 1 μg N2O—N Bottle^1
N2O—N cumulative ([3]; 2 days after appl., listed as UI-0_NI-3): 1 μg N2O—N Bottle^1
N2O—N cumulative ([3]; 3 days after appl., listed as UI-0_NI-1): 4 μg N2O—N Bottle^1
N2O—N cumulative ([3]; 3 days after appl., listed as UI-0_NI-2): 2 μg N2O—N Bottle^1
N2O—N cumulative ([3]; 3 days after appl., listed as UI-0_NI-3): 1 μg N2O—N Bottle^1
N2O—N cumulative ([3]; 4 days after appl., listed as UI-0_NI-1): 4 μg N2O—N Bottle^1
N2O—N cumulative ([3]; 4 days after appl., listed as UI-0_NI-2): 2 μg N2O—N Bottle^1
N2O—N cumulative ([3]; 4 days after appl., listed as UI-0_NI-3): 2 μg N2O—N Bottle^1
N2O—N cumulative ([3]; 5 days after appl., listed as UI-0_NI-1): 4 μg N2O—N Bottle^1
N2O—N cumulative ([3]; 5 days after appl., listed as UI-0_NI-2): 2 μg N2O—N Bottle^1
N2O—N cumulative ([3]; 5 days after appl., listed as UI-0_NI-3): 2 μg N2O—N Bottle^1
N2O—N cumulative ([3]; 6 days after appl., listed as UI-0_NI-1): 5 μg N2O—N Bottle^1
N2O—N cumulative ([3]; 6 days after appl., listed as UI-0_NI-2): 2 μg N2O—N Bottle^1
N2O—N cumulative ([3]; 6 days after appl., listed as UI-0_NI-3): 2 μg N2O—N Bottle^1
N2O—N cumulative ([3]; 8 days after appl., listed as UI-0_NI-1): 6 μg N2O—N Bottle^1
N2O—N cumulative ([3]; 8 days after appl., listed as UI-0_NI-2): 3 μg N2O—N Bottle^1
N2O—N cumulative ([3]; 8 days after appl., listed as UI-0_NI-3): 3 μg N2O—N Bottle^1
N2O—N cumulative ([3]; 10 days after appl., listed as UI-0_NI-1): 5 μg N2O—N Bottle^1
N2O—N cumulative ([3]; 10 days after appl., listed as UI-0_NI-2): 3 μg N2O—N Bottle^1
N2O—N cumulative ([3]; 10 days after appl., listed as UI-0_NI-3): 2 μg N2O—N Bottle^1
N2O—N cumulative ([3]; 12 days after appl., listed as UI-0_NI-1): 5 μg N2O—N Bottle^1
N2O—N cumulative ([3]; 12 days after appl., listed as UI-0_NI-2): 3 μg N2O—N Bottle^1
N2O—N cumulative ([3]; 12 days after appl., listed as UI-0_NI-3): 3 μg N2O—N Bottle^1
N2O—N cumulative ([3]; 14 days after appl., listed as UI-0_NI-1): 6 μg N2O—N Bottle^1
N2O—N cumulative ([3]; 14 days after appl., listed as UI-0_NI-2): 3 μg N2O—N Bottle^1
N2O—N cumulative ([3]; 14 days after appl., listed as UI-0_NI-3): 3 μg N2O—N Bottle^1
N2O—N cumulative ([3]; 17 days after appl., listed as UI-0_NI-1): 6 μg N2O—N Bottle^1
N2O—N cumulative ([3]; 17 days after appl., listed as UI-0_NI-2): 3 μg N2O—N Bottle^1
N2O—N cumulative ([3]; 17 days after appl., listed as UI-0_NI-3): 3 μg N2O—N Bottle^1
N2O—N cumulative ([3]; 18 days after appl., listed as UI-0_NI-1): 5 μg N2O—N Bottle^1
N2O—N cumulative ([3]; 18 days after appl., listed as UI-0_NI-2): 1 μg N2O—N Bottle^1
N2O—N cumulative ([3]; 18 days after appl., listed as UI-0_NI-3): 2 μg N2O—N Bottle^1
N2O—N cumulative ([3]; 20 days after appl., listed as UI-0_NI-1): 5 μg N2O—N Bottle^1
N2O—N cumulative ([3]; 20 days after appl., listed as UI-0_NI-2): 2 μg N2O—N Bottle^1
N2O—N cumulative ([3]; 20 days after appl., listed as UI-0_NI-3): 2 μg N2O—N Bottle^1
N2O—N cumulative ([3]; 22 days after appl., listed as UI-0_NI-1): 7 μg N2O—N Bottle^1
N2O—N cumulative ([3]; 22 days after appl., listed as UI-0_NI-2): 3 μg N2O—N Bottle^1
N2O—N cumulative ([3]; 22 days after appl., listed as UI-0_NI-3): 2 μg N2O—N Bottle^1
N2O—N cumulative ([3]; 24 days after appl., listed as UI-0_NI-1): 7 μg N2O—N Bottle^1
N2O—N cumulative ([3]; 24 days after appl., listed as UI-0_NI-2): 4 μg N2O—N Bottle^1
N2O—N cumulative ([3]; 24 days after appl., listed as UI-0_NI-3): 3 μg N2O—N Bottle^1
N2O—N cumulative ([3]; 28 days after appl., listed as UI-0_NI-1): 8 μg N2O—N Bottle^1
N2O—N cumulative ([3]; 28 days after appl., listed as UI-0_NI-2): 6 μg N2O—N Bottle^1
N2O—N cumulative ([3]; 28 days after appl., listed as UI-0_NI-3): 4 μg N2O—N Bottle^1
N2O—N cumulative, % of appl. ([3]; listed as UI-0_NI-1): 0.01 % of appl.
N2O—N cumulative, % of appl. ([3]; listed as UI-0_NI-2): 0.01 % of appl.
N2O—N cumulative, % of appl. ([3]; listed as UI-0_NI-3): 0.00 % of appl.
Ammonia emission, % of the urea applied (77 mg N) ([4]; 4 days after application, listed as UI 0 NI 1): 0.7%
Ammonia emission, % of the urea applied (77 mg N) ([4]; 4 days after application, listed as UI 0 NI ⅓): 0.6%
Ammonia emission, % of the urea applied (77 mg N) ([4]; 4 days after application, listed as UI 0 NI ⅔): 0.9%
Ammonia emission, % of the urea applied (77 mg N) ([4]; 9 days after application, listed as UI 0 NI 1): 2.2%
Ammonia emission, % of the urea applied (77 mg N) ([4]; 9 days after application, listed as UI 0 NI ⅓): 3.7%
Ammonia emission, % of the urea applied (77 mg N) ([4]; 9 days after application, listed as UI 0 NI ⅔): 2.4%
effect of addition on ammonia emissions ([4]; addition of DMPSA): causes the ammonia emissions to rise
